These results are taken from patent publication US20160193251A1, “METHOD FOR TREATING ALS VIA THE INCREASED PRODUCTION OF FACTOR H” (BioViva USA Inc., priority 2013, published 2016).

Data set [1] concerns stem cells from fat. The experiment in a line: Reprogramming of harvested adipose stem cells by drug treatment. It is filed as cell-based. To be noted: harvested stem cells treated with the drug. From the text: Embodiments of the present invention include performing adult adipose derived stem cell therapy to treat patients with ALS. Amyelotrophic Lateral Sclerosis (ALS) is a fatal disease with no treatment options. Since ALS is a neurological disorder, it was believed that patients would need neural stem cells, not the mesenchymal type stem cells that we have obtained from harvested adipose tissue. But, because neural stem cells are difficult to attain for various physiological and regulatory reasons, a new technical approach that targets the conversion or reprogramming of mesenchymal type stem cells that are obtained from adipose tissue recovered from the same patient to be treated has been generated.
An examplary stem cell therapy involves the use of adipose derived stem cells, which are then incubated with Selegeline, which results in preinduction into motor neurons. Initially, adipose tissue or fat is harvested via a minimally invasive liposuction. Then the fat is processed to separate the vascular stromal fraction of stem cells. […] Once processed, the majority of stem cells are administered into the spine (spinal fluid) via a lumbar puncture. A small dilute fraction of cells are injected into a select muscle group. […] The techniques allowing for culturing of stem cells and the reintroduction will help increase stem cell numbers. […]

Data set [2] has as its system ALS mouse model. To be noted: cited from earlier work.
Data set [3] deals with SOD1 rats. To be noted: ex vivo gene delivery within muscles, midstages of the disease; cited from earlier work.
For data set [4] the following is noted: previous studies; cited from earlier work.

For `C#CCN(C)[C@H](C)Cc1ccccc1` [Selegeline], the “reprogramming of stem cells” value in data set [1] was “able to reprogram the stem cells from fat into neural like cells”.
As for IGF-1: Insulin like growth factor 1, in data set [2], the progression result is listed as “delayed progression” and the survival entry is on record as “increased survival”.

B1: GDNF: Glial derived neurotrophic factor; in b58 given by ex vivo gene delivery within muscles (protein, UniProt P39905 78-211, looked up)
Glial cell line-derived …: SPDKQMAVLPRRERNRQAAAANPENSRGKGRRGQRGKNRGCVLTAIHLNVTDLGLGYETKEELIFRYCSGSCDAAETTYDKILKNLSRNRRLVSDKVGQACCRPIAFDDDLSFLDDNLVYHILRKHSAKRCGCI
As for B1, the “number of neuromuscular connections and motor neuron cell bodies” value in data set [2] is “increased the number of neuromuscular connections and motor neuron cell bodies”. For the same molecule, the “number of neuromuscular connections and MN cell bodies” value in data set [3] is “significantly increased the number of neuromuscular connections”.

B2: CNTF: a neurotrophic factor that is protective of neurons (protein, UniProt P26441 1-200, looked up)
Ciliary neurotrophic factor: MAFTEHSPLTPHRRDLCSRSIWLARKIRSDLTALTESYVKHQGLNKNINLDSADGMPVASTDQWSELTEAERLQENLQAYRTFHVLLARLLEDQQVHFTPTEGDFHQAIHTLLLQVAAFAYQIEELMILLEYKIPRNEADGMPINVGDGGLFEKKLWGLKVLQELSQWTVRSIHDLRFISSHQTGIPARGSHYIANNKKM
With B2, the half life in data set [4] was 2.9 min.
